Drawing on the RepoRT retention time repository, this text covers LC retention time for 80 compounds.

The data set is described as follows: HILIC, Waters ACQUITY UPLC BEH Amide, 100 × 2.1 mm, 1.7 µm; A: water + 0.125% formic acid + 10 mM ammonium formate; B: 5% water + 95% acetonitrile + 0.125% formic acid + 10 mM ammonium formate; gradient (min/%B) 0/100 2/100 7.7/70 9.5/40 10.25/30 12.75/100 17/100. The conditions noted are these: stereoisomer not certain.
For the compound `COc1cc(-c2[o+]c3cc(O)cc(O)c3cc2OC2OC(CO)C(O)C(O)C2O)cc(O)c1O` (stereo not given) [Petunidin-3-glucoside], the LC retention time worked out at 4.47 min.

Take `CC1C(c2ccccc2)OCCN1C` (stereo not given) [Phendimetrazine]: the LC retention time is 2.52 min.

As to `NNCCc1ccccc1` [Phenelzine], the LC retention time worked out at 4.45 min.

`CC(=O)OCCc1ccccc1` [Phenethylacetate]: the LC retention time came to 1.02 min.

As to `NCCc1ccccc1` [Phenethylamine], the LC retention time was 4.87 min.

In the case of `CC1NCCOC1c1ccccc1` (stereo not given) [Phenmetrazine], the LC retention time came out at 4.04 min.

`NC(=O)OCCCc1ccccc1` [Phenprobamate]: the LC retention time is 1.01 min.

As to `CC(C)(N)Cc1ccccc1` [Phentermine], the LC retention time turned out to be 6.23 min.

Regarding `O=CCc1ccccc1` [Phenylacetaldehyde], the LC retention time turned out to be 5.4 min.

`NC(=O)CCC(NC(=O)Cc1ccccc1)C(=O)O` (stereo not given) [Phenylacetylglutamine]: the LC retention time was 6.03 min.

On to `O=C(O)CNC(=O)Cc1ccccc1` [Phenylacetylglycine], for which the LC retention time was determined as 2.88 min.

In the case of `NCC(O)c1ccccc1` (stereo not given) [Phenylethanolamine], the LC retention time amounted to 5.51 min.

Regarding `O=P(O)(O)Oc1ccccc1` [Phenylphosphoric acid], the LC retention time came out at 7.05 min.

Consider `CC(N)C(O)c1ccccc1` (stereo not given) [Phenylpropanolamine], for which the LC retention time came to 5.29 min.

On to `O=C(CCc1ccc(O)cc1)c1c(O)cc(O)cc1O` [Phloretin], for which the LC retention time is 1.5 min.

Consider `O=C(c1ccccc1)c1c(O)cc(O)cc1O` [Phlorobenzophenone], for which the LC retention time came out at 1.34 min.

With `Oc1cc(O)cc(O)c1` [Phloroglucinol], the LC retention time was 1.15 min.

Take `C=C(OP(=O)(O)O)C(=O)O` [Phosphoenolpyruvic acid]: the LC retention time came out at 9.05 min.

Regarding `O=C(O)CP(=O)(O)O` [Phosphonoacetic acid], the LC retention time worked out at 9.73 min.

Turning to `NC(Cc1ccc(OP(=O)(O)O)cc1)C(=O)O` (stereo not given) [Phosphotyrosine], the LC retention time is 9.72 min.

On to `O=C(O)c1ccccc1C(=O)O` [Phthalic acid], for which the LC retention time stood at 1.15 min.

For the compound `CNC(=O)Oc1ccc2c(c1)C1(C)CCN(C)C1N2C` (stereo not given) [Physostigmine], the LC retention time came out at 3.17 min.

Consider `CCCCCCCCCCCCCCC(O)C(O)C(N)CO` (stereo not given) [Phytosphingosine], for which the LC retention time was determined as 5.18 min.

As for `CC(C)(O)C1C2OC(=O)C1C1(O)CC3OC34C(=O)OC2C14C` (stereo not given) [Picrotin], the LC retention time worked out at 1.21 min.

Regarding `O=C1CCC(C(=O)N2CSCC2C(=O)O)N1` (stereo not given) [Pidotimod], the LC retention time amounted to 7.3 min.

In the case of `CCC1C(=O)OCC1Cc1cncn1C` (stereo not given) [Pilocarpine], the LC retention time was 2.23 min.

As for `CC(N=C(NC#N)Nc1ccncc1)C(C)(C)C` (stereo not given) [Pinacidil], the LC retention time came out at 1.49 min.

Regarding `CCc1ccc(CCOc2ccc(CC3SC(=O)NC3=O)cc2)nc1` (stereo not given) [Pioglitazone], the LC retention time was 1.11 min.

As to `O=C(O)C1CCCCN1` (stereo not given) [Pipecolic acid], the LC retention time came to 7.83 min.

Consider `O=C(C=CC=Cc1ccc2c(c1)OCO2)N1CCCCC1` [Piperine], for which the LC retention time was 1.1 min.

With `Cc1nc2ccccn2c(=O)c1CCN1CCC(C(=O)c2ccc(F)cc2)CC1` [Pirenperone], the LC retention time came out at 3.5 min.

As for `CN1C(C(=O)Nc2ccccn2)=C(O)c2ccccc2S1(=O)=O` [Piroxicam], the LC retention time stood at 1.02 min.

For the compound `O=C(O)CC(O)CC(O)C=Cc1c(C2CC2)nc2ccccc2c1-c1ccc(F)cc1` (stereo not given) [Pitavastatin], the LC retention time worked out at 1.36 min.

With `CN1CCC(=C2c3ccccc3CCc3sccc32)CC1` [Pizotifen], the LC retention time is 2.33 min.

Consider `NCc1[nH]cc(CCC(=O)O)c1CC(=O)O` [Porphobilinogen], for which the LC retention time was found to be 7.4 min.

In the case of `CCCNC1CCc2nc(N)sc2C1` (stereo not given) [Pramipexole], the LC retention time turned out to be 5.7 min.

Turning to `CCC(C)C(=O)OC1CC(O)C=C2C=CC(C)C(CCC(O)CC(O)CC(=O)O)C21` (stereo not given) [Pravastatin], the LC retention time is 1.8 min.

For the compound `O=C1CN=C(c2ccccc2)c2cc(Cl)ccc2N1CC1CC1` [Prazepam], the LC retention time turned out to be 1.07 min.

As to `COc1cc2nc(N3CCN(C(=O)c4ccco4)CC3)nc(N)c2cc1OC` [Prazosin], the LC retention time was found to be 3.75 min.

On to `NC(=O)CCC(NC(=O)C1CCCN1)C(=O)O` (stereo not given) [Pro-Gln], for which the LC retention time turned out to be 8.75 min.

`CNNCc1ccc(C(=O)NC(C)C)cc1` [Procarbazine]: the LC retention time amounted to 4.61 min.

On to `CN1CCN(CCCN2c3ccccc3Sc3ccc(Cl)cc32)CC1` [Prochlorperazine], for which the LC retention time came to 2.56 min.

Take `CC(=O)C1CCC2C3CCC4=CC(=O)CCC4(C)C3CCC12C` (stereo not given) [Progesterone]: the LC retention time amounted to 0.97 min.

Turning to `O=C(O)C1CC(O)CN1C(=O)C1CCCN1` (stereo not given) [Proline-hydroxyproline], the LC retention time was 8.6 min.

Take `O=C(O)C1CCCN1` (stereo not given) [Proline]: the LC retention time stood at 7.83 min.

`CCC(=O)Nc1ccc(Cl)c(Cl)c1` [Propanil]: the LC retention time turned out to be 1.08 min.

Take `CCC(=O)OC(CC(=O)[O-])C[N+](C)(C)C` (stereo not given) [Propionylcarnitine]: the LC retention time stood at 6.41 min.

For `CCC(=O)OC(Cc1ccccc1)(c1ccccc1)C(C)CN(C)C` (stereo not given) [Propoxyphene], the LC retention time was 2.01 min.

Consider `COc1cc(C=Cc2ccc(O)cc2)cc(OC)c1` [Pterostilbene], for which the LC retention time amounted to 0.98 min.

As to `c1ncc2[nH]cnc2n1` [Purine], the LC retention time came to 2.44 min.

In the case of `NCCCCN` [Putrescine], the LC retention time came out at 9.3 min.

On to `CCOC(=O)COc1cc(-c2nn(C)c(OC(F)F)c2Cl)c(F)cc1Cl` [Pyrafluefen-ethyl], for which the LC retention time stood at 1.02 min.

With `c1ccncc1` [Pyridine], the LC retention time stood at 6.63 min.

As to `Cc1ncc(COP(=O)(O)O)c(C=O)c1O` [Pyridoxal-5-phosphate], the LC retention time worked out at 7.7 min.

Consider `Cc1ncc(CO)c(C=O)c1O` [Pyridoxal], for which the LC retention time was 2.18 min.

On to `Cc1ncc(CO)c(CN)c1O` [Pyridoxamine], for which the LC retention time came to 8.1 min.

Take `Cc1ncc(CO)c(CO)c1O` [Pyridoxine]: the LC retention time is 3.78 min.

Consider `O=C1CCC(C(=O)O)N1` (stereo not given) [Pyroglutamic acid], for which the LC retention time worked out at 8.71 min.

On to `O=C(O)c1ccc[nH]1` [Pyrrole-2-carboxylic acid], for which the LC retention time was determined as 5.66 min.

As to `CC(=O)OCC1OC(Oc2c(-c3ccc(O)c(O)c3)oc3cc(O)cc(O)c3c2=O)C(O)C(O)C1O` (stereo not drawn) [Quercetin-3-O-beta-glucopyranosyl-6'-acetate], the LC retention time stood at 4.61 min.

Consider `CC1OC(Oc2c(-c3ccc(O)c(O)c3)oc3cc(O)cc(O)c3c2=O)C(O)C(O)C1O` (stereo not given) [Quercetin-3-ramnoside], for which the LC retention time was found to be 4.7 min.

Consider `OCCOCCN1CCN(C2=Nc3ccccc3Sc3ccccc32)CC1` [Quetiapine], for which the LC retention time came to 2.54 min.

As to `O=C(O)c1cccnc1C(=O)O` [Quinolinic acid], the LC retention time amounted to 2.16 min.

For `COCCCOc1ccnc(CS(=O)c2nc3ccccc3[nH]2)c1C` (stereo not given) [Rabeprazole], the LC retention time was determined as 2.44 min.

Turning to `CC(=O)SCC(Cc1ccccc1)C(=O)NCC(=O)OCc1ccccc1` (stereo not given) [Racecadotril], the LC retention time stood at 0.95 min.

Consider `CCN1CCCC1CNC(=O)c1c(O)c(Cl)cc(Cl)c1OC` (stereo not given) [Raclopride], for which the LC retention time was 2.11 min.

As to `OCC1OC(OCC2OC(OC3(CO)OC(CO)C(O)C3O)C(O)C(O)C2O)C(O)C(O)C1O` (stereo not given) [Raffinose], the LC retention time amounted to 9.17 min.

As to `Cc1nc2ccc(CN(C)c3ccc(C(=O)NC(CCC(=O)O)C(=O)O)s3)cc2c(=O)[nH]1` (stereo not given) [Raltitrexed], the LC retention time worked out at 7.35 min.

For the compound `CCOC(=O)C(CCc1ccccc1)NC(C)C(=O)N1C(C(=O)O)CC2CCCC21` (stereo not given) [Ramipril], the LC retention time came to 1.4 min.

For the compound `CNC(=C[N+](=O)[O-])NCCSCc1ccc(CN(C)C)o1` [Ranitidine], the LC retention time was found to be 5.18 min.

As for `COc1ccccc1OCC(O)CN1CCN(CC(=O)Nc2c(C)cccc2C)CC1` (stereo not given) [Ranolazine], the LC retention time was 2.79 min.

For the compound `CC(Cc1ccccc1)(NC(=O)CN)c1ccccc1` (stereo not given) [Remacemide], the LC retention time came to 4.41 min.

Consider `CCOc1cc(CC(=O)NC(CC(C)C)c2ccccc2N2CCCCC2)ccc1C(=O)O` (stereo not given) [Repaglinide], for which the LC retention time worked out at 1.01 min.

`Oc1ccc(C=Cc2cc(O)cc(O)c2)cc1` [Resveratrol]: the LC retention time amounted to 1.41 min.

As for `CC(C=CC1=C(C)CCCC1(C)C)=CC=CC(C)=CC(=O)O` [Retinoic acid], the LC retention time was 1.11 min.

In the case of `Cc1cc2nc3c(=O)[nH]c(=O)nc-3n(CC(O)C(O)C(O)CO)c2cc1C` (stereo not given) [Riboflavin], the LC retention time was 6 min.

Regarding `COC1C=COC2(C)Oc3c(C)c(O)c4c(O)c(c5c(c4c3C2=O)=NC2(CCN(CC(C)C)CC2)N=5)NC(=O)C(C)=CC=CC(C)C(O)C(C)C(O)C(C)C(OC(C)=O)C1C` (stereo not given) [Rifabutin], the LC retention time worked out at 2.76 min.

With `COC1C=COC2(C)Oc3c(C)c(O)c4c(O)c(c(C=NN5CCN(C6CCCC6)CC5)c(O)c4c3C2=O)NC(=O)C(C)=CC=CC(C)C(O)C(C)C(O)C(C)C(OC(C)=O)C1C` (stereo not given) [Rifapentine], the LC retention time was 1.81 min.

On to `COC1C=COC2(C)Oc3c(C)c(O)c4c(O)c(c5c(nc6cc(C)ccn65)c4c3C2=O)NC(=O)C(C)=CC=CC(C)C(O)C(C)C(O)C(C)C(OC(C)=O)C1C` (stereo not given) [Rifaximin], for which the LC retention time was found to be 1.18 min.

With `Nc1nc2ccc(OC(F)(F)F)cc2s1` [Riluzole], the LC retention time came to 1.03 min.
